Measurements as given in patent US6344208B1, “Pheromone baits for social insects” (priority 1989, dated 2002).

Key:
Assay type in all cases: in vivo
[1] = tested on: Atta sexdens; assay: Field Trial 3: Mirex sachets with single pheromone component placed 1 metre from nest entrance on active trails; conditions: Trial 3, 50 μl component on rubber septum, components tested separately
Method: (§1) The insecticide bait Mirex was used in all the trials. In Trials 3 and 4 the bait was presented to the ants in black plastic sachets 8 cm^2 placed inside wire cages, which provided protection from cattle, horses, small manamals and birds. The empty cages were placed in the field 24 hours prior to the start of the experiment. The Mire sachets were prepared and a component of mandibular gland alarm pheromone of the ant species concerned was added to the treatment sachets. In Trial 5 the sachets were not placed in cages but were scattered randomly at the cutting site. Five components or the alarm pheromone were tested. Rubber septa, used to provide a slow-release substrate, were dosed with 50 μl of component and then sealed inside the Mirex sachets. Control sachets were sealed with untreated rubber septa. The sachets were transferred immediately to the field sites. The fate of the sachets was then monitored over a 3 day period.
Trial 3: Sachets were placed 1 metre from the nest entrance hole on active trials of A. sexdens. Five synthetic components of the alarm pheromone were tested, separately; citral, farnesol, 6-methyl-5-hepten-2-one, 4-methyl-3-heptanone and geraniol. […] The results for the five synthetic pheromones were pooled.

[2] = tested on: Atta sexdens; assay: Field Trial 5: Mirex sachets with single pheromone component scattered randomly at cutting site; conditions: Trial 5, 50 μl component; for discovery and opening of sachets: sachets over about 10 m^2 where ants were cutting leaves
Method: as §1
Trial 5: Sachets containing, separately, citral (E), 4-methyl-3-heptanone H and 6-methyl-5-hepten-2-one (G) were distributed randomly over an area of about 10 m^2 where ants were actively cutting leaves.

[3] = tested on: Acromyrmex octospinosus; assay: Research and laboratory trials on behaviour induced by synthetic alarm pheromone components; conditions: research by the applicant
Description: Recent research by the applicant on the neotropical leaf-cutting ant Acromyrmex octospinosus has shown that […] components of the alarm pheromone of this ant, namely 3-octanol and 3-octanone, attract nestmates and induce the laying of trails around the source which ensure that nestmates are then attracted towards the source for some time and attack the source on arrival.
It is expected that this surprising effect will be shown by synthetic components of pheromones of other insects, especially social insects.
The synthetic pheromone compounds may therefore be used in food baits in contrast to what would be expected.

CC(C)=CCCC(C)=CCCC(C)=CCO [farnesol] was tested, and the “fate of test sachets” value [1] was “cut open and the contents transported into the nest”.
CC(C)=CCCC(C)=CC=O [citral] was tested, and the “fate of test sachets” value [1] was “cut open and the contents transported into the nest” and the “discovery and opening of sachets” value [2] was “discovered and opened immediately”.
In the case of CCCCCC(=O)CC [3-octanone], the “behaviour induced in nestmates by the alarm pheromone component” value [3] is reported as “mainly causes recruitment of ants from the peripheral area”.
CCCC(C)C(=O)CC (centres unmarked) [4-methyl-3-heptanone] was tested, and the “fate of test sachets” value [1] was “cut open and the contents transported into the nest”, the “time until all the bait had been transported back to the nest” value [2] was at most 30 min and the “discovery and opening of sachets” value [2] was “discovered and opened immediately”.
With CC(C)=CCC/C(C)=C/CO [geraniol] the “fate of test sachets” value [1] was “cut open and the contents transported into the nest”.
With CCCCCC(O)CC (centres unmarked) [3-octanol] the “behaviour induced in nestmates by the alarm pheromone component” value [3] was “mainly controls attraction to the source, the laying of pheromone trails radiating out from the source, and biting”.
With CC(=O)CCC=C(C)C [6-methyl-5-hepten-2-one] the “fate of test sachets” value [1] was “cut open and the contents transported into the nest” and the “discovery and opening of sachets” value [2] was “discovered and opened immediately”.
